Values of other authors, collected in publication PMC6856260 (Clinical Pharmacokinetics, 2019).
Where two headings read alike, the source gives them in different places.

Assays:
[1] = co-formulated with 5-CNAC
[2] = post-dose fasting periods of 15, 30, 60 and 120 min; oral, co-formulated with SNAC

Substance	reduction of exposure of salmon calcitonin ([1]; meal 10 min after oral dosing versus 60 min post-dose fasting)	reduction of exposure of salmon calcitonin ([1]; meal 10 min after oral dosing versus 4 h post-dose fasting) [%]	effect of increasing post-dose fasting period on exposure (in words) [2]
salmon calcitonin	up to 30%	41	–
semaglutide: oral semaglutide co-formulated with SNAC	–	–	increasing semaglutide exposure
